Reference: publication PMC12251544 (2025)

What follows are molecules tested on FAM-SpA1-1/SpA1-2 (T-2 toxin split aptamer) (DNA, aptamer) CAGCTCAGAAGCTTGATCCTG/TATATCAAGCATAGAGGTG. Conditions: 5 mM K+, 100 mM Na+, 1 mM Mg2+; 50 mM Tris-HCl, 1% methanol, pH 7.4, room temperature; sensor selectivity; concentration tested not stated.

With `CCCC[C@@H](C)[C@@H](OC(=O)C[C@@H](CC(=O)O)C(=O)O)[C@H](C[C@@H](C)C[C@H](O)CCCC[C@@H](O)C[C@H](O)[C@H](C)N)OC(=O)C[C@@H](CC(=O)O)C(=O)O` as the molecule, how does the binding read?
Its binding is “no”.

With `C[C@@H]1Cc2c(Cl)cc(C(=O)N[C@@H](Cc3ccccc3)C(=O)O)c(O)c2C(=O)O1` as the molecule, how does the binding read?
Its binding is “no”.

`C[C@H]1CCCC(=O)CCC/C=C/c2cc(O)cc(O)c2C(=O)O1` was tested. Which binding did it give?
Its binding is “no”.
